Results reported in PubChem BioAssay AID651642 (Sanford-Burnham Center for Chemical Genomics, 2012).

What was measured:
[1] = system: HL-1; test: protection of cardiomyocytes from stress damage, SAR follow-up, cell-based, panel, H9c2 and HL-1, H2O2, 2-deoxyglucose, ATP luminescence (AID 651642)
[2] = system: H9c2; test: as above
[3] = H9c2/HL-1 cardiomyocyte 2-deoxyglucose damage, mean of runs, with 2-deoxyglucose, mean IC50 across panel
[4] = H9c2/HL-1 cardiomyocyte 2-deoxyglucose damage, run 1, with 2-deoxyglucose
[5] = H9c2/HL-1 cardiomyocyte 2-deoxyglucose damage, run 2, with 2-deoxyglucose
[6] = H9c2/HL-1 cardiomyocyte 2-deoxyglucose damage, run 3, with 2-deoxyglucose
[7] = H9c2/HL-1 cardiomyocyte 2-deoxyglucose damage, run 4, with 2-deoxyglucose
[8] = H9c2/HL-1 cardiomyocyte H2O2 oxidative damage, run 1, with H2O2
[9] = H9c2/HL-1 cardiomyocyte H2O2 oxidative damage, run 2, with H2O2
[10] = H9c2/HL-1 cardiomyocyte H2O2 oxidative damage, run 3, with H2O2
[11] = H9c2/HL-1 cardiomyocyte H2O2 oxidative damage, run 4, with H2O2
[12] = H9c2/HL-1 cardiomyocyte H2O2 oxidative damage, mean of runs, with H2O2, mean IC50 across panel

| SMILES | IC50 [1, 3] [µM] | IC50 [1, 4] [µM] | IC50 [1, 5] [µM] | IC50 [1, 6] [µM] | IC50 [1, 7] [µM] | IC50 [1, 8] [µM] | IC50 [1, 9] [µM] | IC50 [1, 10] [µM] | IC50 [1, 11] [µM] | IC50 [2, 3] [µM] | IC50 [2, 4] [µM] | IC50 [2, 5] [µM] | IC50 [2, 6] [µM] | IC50 [2, 7] [µM] | IC50 [2, 8] [µM] | IC50 [2, 9] [µM] | IC50 [2, 10] [µM] | IC50 [2, 11] [µM] | IC50 [1, 12] [µM] | IC50 [2, 12] [µM] |
| --- | --- | --- | --- | --- | --- | --- | --- | --- | --- | --- | --- | --- | --- | --- | --- | --- | --- | --- | --- | --- |
| CCOC(=O)c1cccc(NC(=O)c2cc(-c3cc(OC)c(OC)c(OC)c3)nc3cc(Cl)ccc23)c1 | > 79 | > 79 | > 79 | > 79 | > 79 | > 79 | > 79 | 6.51 | 6.76 | > 79 | > 79 | > 79 | > 79 | > 79 | > 79 | 31.1 | > 79 | > 79 | – | – |
| CCOC(=O)c1cccc(NC(=O)c2cc(-c3cc(OC)c(OC)c(OC)c3)nc3ccc(F)cc23)c1 | – | 3.32 | 4.09 | > 79 | > 79 | 2.77 | 7.9 | 2.4 | 3.37 | > 79 | > 79 | > 79 | > 79 | > 79 | 9 | 10.7 | > 79 | 3.82 | 4.11 | – |
| COc1ccc2nc(-c3cc(OC)c(OC)c(OC)c3)cc(C(=O)NCC(=O)Nc3cccc(C(C)=O)c3)c2c1 | 2.9 | 1.27 | 3.22 | 3.47 | 3.64 | 4.48 | 6.94 | 4.08 | 5 | 2.63 | 3.05 | 3.53 | 1.89 | 2.03 | 0.761 | 0.868 | > 79 | 0.324 | 5.12 | – |
| CCOC(=O)c1cccc(NC(=O)CNC(=O)c2cc(-c3cc(OC)c(OC)c(OC)c3)nc3ccc(C)cc23)c1 | 2.2 | 1.1 | 1.45 | 2.9 | 3.35 | 2.88 | 3.32 | 1.46 | 4.48 | 2.67 | 3.13 | 3.54 | 1.85 | 2.18 | 0.726 | 0.842 | 0.517 | 0.577 | 3.04 | 0.665 |
| COc1ccc2c(c1OC)C(=O)N1c3ccccc3C(=O)N(Cc3cccc(C)c3)C21 (centres undefined) | 10.6 | 7.52 | 8.41 | 12 | 14.6 | > 79 | > 79 | > 79 | > 79 | > 79 | > 79 | > 79 | > 79 | > 79 | 5.63 | 6 | > 79 | > 79 | > 79 | – |
| CCOC(=O)c1ccc(NC(=O)c2cc(-c3cc(OC)c(OC)c(OC)c3)nc3ccccc23)cc1 | > 79 | > 79 | > 79 | > 79 | > 79 | > 79 | > 79 | > 79 | > 79 | > 79 | > 79 | > 79 | > 79 | > 79 | > 79 | 21.5 | > 79 | > 79 | > 79 | – |
| COc1cc(-c2cc(C(=O)NCC(=O)Nc3cccc(C(C)=O)c3)c3cc(F)ccc3n2)cc(OC)c1OC | 6.37 | 3.22 | 3.87 | 8.99 | 9.39 | 5.91 | 5.98 | 5.45 | 8.51 | 6.15 | 7.04 | 8.51 | 4.17 | 4.87 | 1.53 | 1.98 | 0.789 | 0.865 | 6.46 | 1.29 |
| CCOC(=O)c1cccc(NC(=O)c2cc(-c3cc(OC)c(OC)c(OC)c3)nc3c(Cl)cccc23)c1 | > 79 | > 79 | > 79 | > 79 | > 79 | > 79 | 11.1 | > 79 | > 79 | > 79 | > 79 | > 79 | > 79 | > 79 | > 79 | 30.3 | > 79 | > 79 | – | – |
| COc1ccccc1CN1C(=O)c2ccccc2N2C(=O)c3c(ccc(OC)c3OC)C12 (centres undefined) | 5.37 | 2.86 | 3.96 | 6.95 | 7.71 | > 79 | > 79 | 4.54 | 12 | – | > 79 | > 79 | 43.5 | 46.2 | > 79 | 0.303 | > 79 | > 79 | – | – |
| CCOC(=O)c1cccc(NC(=O)c2cc(-c3cc(OC)c(OC)c(OC)c3)nc3ccc(Br)cc23)c1 | > 79 | > 79 | > 79 | > 79 | > 79 | > 79 | > 79 | > 79 | 4.69 | > 79 | > 79 | > 79 | > 79 | > 79 | 2.86 | 3.15 | > 79 | > 79 | – | – |
| COc1ccc2c(c1OC)C(=O)N1c3ccccc3C(=O)N(Cc3ccc(C)cc3)C21 (centres undefined) | – | 11.4 | 23.3 | > 79 | > 79 | > 79 | > 79 | > 79 | > 79 | > 79 | > 79 | > 79 | > 79 | > 79 | > 79 | 6.9 | > 79 | > 79 | – | – |
| COc1cc(-c2cc(C(=O)Nc3cccc(C(C)=O)c3)c3cc(F)ccc3n2)cc(OC)c1OC | > 79 | > 79 | > 79 | > 79 | > 79 | 2.49 | 3.72 | 3.31 | 5.2 | > 79 | > 79 | > 79 | > 79 | > 79 | 5.38 | 7.18 | 4.58 | 10.5 | 3.68 | 6.9 |
| COc1ccc2c(c1OC)C(=O)N1c3ccccc3C(=O)N(Cc3ccccc3F)C21 (centres undefined) | 7.16 | 2.26 | 2.31 | 8.41 | 15.7 | > 79 | > 79 | > 79 | > 79 | 34.3 | 36.6 | 37.9 | 31.3 | 31.6 | 1.35 | 2.03 | > 79 | > 79 | > 79 | – |
| CCOC(=O)c1cccc(NC(=O)c2cc(-c3cc(OC)c(OC)c(OC)c3)nc3ccc(Cl)cc23)c1 | > 79 | > 79 | > 79 | > 79 | > 79 | > 79 | > 79 | 1.79 | 4.09 | > 79 | > 79 | > 79 | > 79 | > 79 | 3.38 | 21.1 | > 79 | > 79 | – | – |
| COc1cc(-c2cc(C(=O)Nc3cccc(C(N)=O)c3)c3ccccc3n2)cc(OC)c1OC | 14.2 | 7.32 | 8.09 | 19.2 | 22.1 | 4.52 | 5.96 | 2.31 | 7.08 | – | 31.1 | 31.3 | > 79 | > 79 | 2.23 | 2.4 | 2.49 | 2.57 | 4.97 | 2.42 |
| CCOC(=O)c1ccccc1NC(=O)c1cc(-c2cc(OC)c(OC)c(OC)c2)nc2ccccc12 | – | 2.72 | 3 | > 79 | > 79 | > 79 | > 79 | > 79 | 6.51 | > 79 | > 79 | > 79 | > 79 | > 79 | 4.3 | 4.52 | > 79 | > 79 | – | – |
| COc1ccc2c(c1OC)C(=O)N1c3ccccc3C(=O)N(Cc3ccncc3)C21 (centres undefined) | > 79 | > 79 | > 79 | > 79 | > 79 | > 79 | > 79 | > 79 | > 79 | > 79 | > 79 | > 79 | > 79 | > 79 | > 79 | 55.3 | > 79 | > 79 | – | – |
